Measurements taken from PMC7979765, “trans-Translation inhibitors bind to a novel site on the ribosome and clear Neisseria gonorrhoeae in vivo” (Nature Communications, 2021).
In brackets after ≈: the same amount, converted by molar mass. Several values for one entry are separate records, joined by “and”; a condition that tells them apart may be missing. Identical values can stand only once.

Tested on: Neisseria gonorrhoeae
Experiment: MIC, microbroth dilution, G77L medium
Type: cell-based

`O=C(Nc1nnc(-c2ccc(F)cc2)o1)N1CCc2ccccc2C1` [MBX-4132] was tested, and the MIC (Neisseria gonorrhoeae, strain MMX 6744, broth dilution by Micromyx) was 0.27 µg/mL (≈ 0.798 µM), the MIC (Neisseria gonorrhoeae, strain MMX 6746, CIP, by Micromyx) was 0.14 µg/mL (≈ 0.414 µM) and the MIC (Neisseria gonorrhoeae, strain MMX 6752, TET, by Micromyx) was 0.27 µg/mL (≈ 0.798 µM). For the same molecule, the MIC (Neisseria gonorrhoeae, strain MMX 6753, by Micromyx) was 0.14 µg/mL (≈ 0.414 µM), the MIC (Neisseria gonorrhoeae, strain MMX 6757, by Micromyx) was 0.07 µg/mL (≈ 0.207 µM) and the MIC (Neisseria gonorrhoeae, strain MMX 6758, by Micromyx) was 0.27 µg/mL (≈ 0.798 µM). It also gave an MIC (Neisseria gonorrhoeae, strain MMX 6762, by Micromyx) of 0.27 µg/mL (≈ 0.798 µM), an MIC (Neisseria gonorrhoeae, strain MMX 6767, by Micromyx) of 0.14 µg/mL (≈ 0.414 µM) and an MIC (Neisseria gonorrhoeae, strain MMX 6771, TET, by Micromyx) of 0.14 µg/mL (≈ 0.414 µM). It also gave an MIC (Neisseria gonorrhoeae, strain MMX 6793, CIP, by Micromyx) of 0.14 µg/mL (≈ 0.414 µM), an MIC (Neisseria gonorrhoeae, strain MMX 6797, CIP, TET, by Micromyx) of 0.14 µg/mL (≈ 0.414 µM) and an MIC (Neisseria gonorrhoeae, strain MMX 6803, CIP, by Micromyx) of 0.27 µg/mL (≈ 0.798 µM). It also gave an MIC (Neisseria gonorrhoeae, strain MMX 6812, CIP, by Micromyx) of 0.27 µg/mL (≈ 0.798 µM), an MIC (Neisseria gonorrhoeae, strain MMX 6818, CIP, by Micromyx) of 0.27 µg/mL (≈ 0.798 µM) and an MIC (Neisseria gonorrhoeae, strain MMX 6819, CIP, by Micromyx) of 0.14 µg/mL (≈ 0.414 µM). The MIC (Neisseria gonorrhoeae, strain MMX 6879, by Micromyx) was 0.14 µg/mL (≈ 0.414 µM), the MIC (Neisseria gonorrhoeae, strain MMX 6921, CIP, by Micromyx) was 0.53 µg/mL (≈ 1.57 µM) and the MIC (Neisseria gonorrhoeae, strain MMX 6922, CIP, by Micromyx) was 0.53 µg/mL (≈ 1.57 µM). It also gave an MIC (Neisseria gonorrhoeae, strain MMX 6983, CIP, by Micromyx) of 0.53 µg/mL (≈ 1.57 µM), an MIC (Neisseria gonorrhoeae, strain MMX 6989, by Micromyx) of 0.14 µg/mL (≈ 0.414 µM) and an MIC (Neisseria gonorrhoeae, strain MMX 6990, CIP, by Micromyx) of 0.14 µg/mL (≈ 0.414 µM). The MIC (Neisseria gonorrhoeae, strain MMX 6992, by Micromyx) was 0.14 µg/mL (≈ 0.414 µM), the MIC (Neisseria gonorrhoeae, strain MMX 6996, by Micromyx) was 0.27 µg/mL (≈ 0.798 µM) and the MIC (Neisseria gonorrhoeae, strain MMX 6998, CIP, by Micromyx) was 0.53 µg/mL (≈ 1.57 µM). For the same molecule, the MIC (Neisseria gonorrhoeae, strain MMX 7002, CIP, by Micromyx) was 0.27 µg/mL (≈ 0.798 µM), the MIC (Neisseria gonorrhoeae, strain MMX 7005, by Micromyx) was 0.03 µg/mL (≈ 0.0887 µM) and the MIC (Neisseria gonorrhoeae, strain WHO F) was 0.06 µg/mL (≈ 0.177 µM). It also gave an MIC (Neisseria gonorrhoeae, strain WHO F, replicates 1-3) of 0.066 µg/mL (≈ 0.195 µM), an MIC (Neisseria gonorrhoeae, strain WHO G, PEN, TET) of 0.13 µg/mL (≈ 0.384 µM) and an MIC (Neisseria gonorrhoeae, strain WHO G, replicates 1-3) of 0.132 µg/mL (≈ 0.39 µM). For the same molecule, the MIC (Neisseria gonorrhoeae, strain WHO K, CIP, PEN, TET) was 0.26 µg/mL (≈ 0.768 µM), the MIC (Neisseria gonorrhoeae, strain WHO K, replicates 1-3) was 0.264 µg/mL (≈ 0.78 µM) and the MIC (Neisseria gonorrhoeae, strain WHO L, CIP, PEN, TET) was 0.26 µg/mL (≈ 0.768 µM). For the same molecule, the MIC (Neisseria gonorrhoeae, strain WHO L, replicates 1-3) was 0.264 µg/mL (≈ 0.78 µM), the MIC (Neisseria gonorrhoeae, strain WHO M, CIP, PEN, TET) was 0.13 µg/mL (≈ 0.384 µM) and the MIC (Neisseria gonorrhoeae, strain WHO M, replicates 1-3) was 0.132 µg/mL (≈ 0.39 µM). The MIC (Neisseria gonorrhoeae, strain WHO N, CIP, PEN, TET) was 0.26 µg/mL (≈ 0.768 µM), the MIC (Neisseria gonorrhoeae, strain WHO N, replicates 1-3) was 0.264 µg/mL (≈ 0.78 µM) and the MIC (Neisseria gonorrhoeae, strain WHO O, PEN, TET) was 0.13 µg/mL (≈ 0.384 µM). It also gave an MIC (Neisseria gonorrhoeae, strain WHO O, replicates 1-3) of 0.132 µg/mL (≈ 0.39 µM), an MIC (Neisseria gonorrhoeae, strain WHO P, PEN, TET) of 0.33 µg/mL (≈ 0.975 µM) and an MIC (Neisseria gonorrhoeae, strain WHO U, PEN, TET) of 0.13 µg/mL (≈ 0.384 µM). For the same molecule, the MIC (Neisseria gonorrhoeae, strain WHO U, replicates 1-3) was 0.132 µg/mL (≈ 0.39 µM), the MIC (Neisseria gonorrhoeae, strain WHO V, AZM, CIP, PEN, TET) was 0.26 µg/mL (≈ 0.768 µM) and the MIC (Neisseria gonorrhoeae, strain WHO V, replicates 1-3) was 0.264 µg/mL (≈ 0.78 µM). For the same molecule, the MIC (Neisseria gonorrhoeae, strain WHO W, CIP, PEN, TET) was 0.13 µg/mL (≈ 0.384 µM), the MIC (Neisseria gonorrhoeae, strain WHO W, replicates 1-3) was 0.132 µg/mL (≈ 0.39 µM) and the MIC (Neisseria gonorrhoeae, strain WHO X, CIP, PEN, TET) was 0.21 µg/mL (≈ 0.621 µM). For the same molecule, the MIC (Neisseria gonorrhoeae, strain WHO X, replicates 1-3) was 0.132 µg/mL (≈ 0.39 µM), the MIC (Neisseria gonorrhoeae, strain WHO Y, CIP, PEN, TET) was 0.21 µg/mL (≈ 0.621 µM) and the MIC (Neisseria gonorrhoeae, strain WHO Y, replicates 1-3) was 0.264 µg/mL (≈ 0.78 µM). The MIC (Neisseria gonorrhoeae, strain WHO Z, CIP, PEN, TET) was 0.26 µg/mL (≈ 0.768 µM), the MIC (Neisseria gonorrhoeae, strain WHO Z, replicates 1-3) was 0.264 µg/mL (≈ 0.78 µM) and the MIC (strain ATCC 49226, replicates 1-3) was 0.169 µg/mL and 0.085 µg/mL. The MIC (strain ATCC 700719, replicates 1-3) was 0.169 µg/mL and 0.338 µg/mL.
